The results in this text go back to US20260183274A1, “PDK1 REGULATORY COMPOUND AND COMPOSITION CONTAINING THE SAME” (PROVIBIO CO., LTD., priority 2024, published 2026).

This assay deals with T cells isolated from mouse spleens. As to the kind of experiment: T cell proliferation inhibition (CFSE flow cytometry, anti-CD3/anti-CD28 stimulation). The format is cell-based. To be noted: mouse spleen T cells, 3 days; for inhibition at 0.01 µM / inhibition at 0.1 µM / inhibition at 1 µM / inhibition at 10 µM / inhibition at 30 µM / inhibition at 50 µM: Mus musculus, T-cell, 72 h, read-out: Proliferation inhibition rate (%). Here is the method: To verify the T cell proliferation inhibitory effect of the compounds according to the present invention, the following experiment was performed based on flow cytometry analysis using carboxyfluorescein diacetate succinimidyl ester (CFSE), a fluorescent dye that binds to intracellular molecules via covalent bonds.
Spleens were extracted from 7-week-old C57BL/6 mice, ground, and then separated into single cells using a strainer (40 μm pore size, SPL). Red blood cells were removed using ACK (Ammonium-Chloride-Potassium) lysis buffer to isolate white blood cells.
Finally, using a MACS Magnetic Stand and LS column, T cells were isolated from the spleen.
The T cells isolated from the spleen were resuspended in 1 mL of free medium (RPMI-1640+200 U/mL penicillin+200 μg/mL streptomycin), and 0.3 μL of CFSE (10 mM) was added. The mixture was incubated at 37° C. for 5 minutes.
Free medium (10 mL) was added to stop the reaction, and the cells were centrifuged to obtain the cell pellet.
RPMI 1640 medium containing 10% FBS, 100 U/mL penicillin, 100 μg/mL streptomycin, and resuspended the cells. The cells were then seeded into a 96-well plate at a density of 2×10^5 cells per well and activated with CD3 and CD28 antibodies (0.5 μg/mL each) to activate T cells.
The compound diluted in DMSO was added at concentrations of 10 nM, 100 nM, 1 μM, 10 μM, 30 μM, and 50 μM, with three wells per concentration, and cultured at 37° C. and 5% CO2 for three days. The cells were then analyzed using a FACS Canto instrument.
The proliferation inhibition rate (%) was calculated using the following formula: […]
In general terms: Flow cytometry measures light scatter and fluorescence of single cells or particles in a stream.

With `O=C(NCCCCCCCCCCCCF)c1cnccc1Cl` [Compound 60, 4-Chloro-N-(12-fluoro-dodecyl)-nicotinamide], for the setting “compound 10 nM”, the inhibition at 0.01 µM is -1.92%. Besides, the inhibition at 0.1 µM (compound 100 nM) turned out to be 8.77%. In addition, the inhibition at 1 µM (compound 1 μM) came to 6.85%. Besides, where the note is “compound 10 μM”, the inhibition at 10 µM stood at 63.5%. Also, the inhibition at 30 µM (compound 30 μM) came to 100%. Besides, the inhibition at 50 µM (compound 50 μM) turned out to be 100%.

For `CN1CCN(CCCCCCCCCCCCNC(=O)c2ccccc2Oc2ccccc2)CC1` [Compound 214, N-(12-(4-methylpiperazin-1-yl)dodecyl)-2-phenoxybenzamide], under “compound 10 nM”, the inhibition at 0.01 µM came to 2.32%. The inhibition at 0.1 µM (compound 100 nM) amounted to 12.2%. Also, the inhibition at 1 µM (compound 1 μM) stood at 17.4%. Also, under “compound 10 μM”, the inhibition at 10 µM was determined as 100%. Under “compound 30 μM”, the inhibition at 30 µM was 100%. For the setting “compound 50 μM”, the inhibition at 50 µM came to 100%.

Regarding `COc1ccc(C(=O)NCCCCCCCCCCCCN2CCN(C)CC2)nc1` [Compound 204, 5-methoxy-N-(12-(4-methylpiperazin-1-yl)dodecyl)picolinamide], the inhibition at 0.01 µM (compound 10 nM) is -2.6%. In addition, the inhibition at 0.1 µM (compound 100 nM) is -0.14%. Moreover, the inhibition at 1 µM (compound 1 μM) came to 12.3%. Besides, for the setting “compound 10 μM”, the inhibition at 10 µM was 95%. Also, the inhibition at 30 µM (compound 30 μM) turned out to be 100%. The inhibition at 50 µM (compound 50 μM) came out at 100%.

Consider `CN1CCN(CCCCCCCCCCCCNC(=O)c2ccccc2-c2ncc[nH]2)CC1` [Compound 192, 2-(1H-imidazol-2-yl)-N-(12-(4-methylpiperazin-1-yl)dodecyl)benzamide], for which, where the note is “compound 10 nM”, the inhibition at 0.01 µM was -3.25%. Further, under “compound 100 nM”, the inhibition at 0.1 µM was -0.84%. For the same molecule, the inhibition at 1 µM (compound 1 μM) turned out to be 0.96%. For the same molecule, under “compound 10 μM”, the inhibition at 10 µM worked out at 99.8%. Where the note is “compound 30 μM”, the inhibition at 30 µM is 100%. Further, where the note is “compound 50 μM”, the inhibition at 50 µM was found to be 100%.

`Nc1nc(NC(=O)CCCCCCCCCCCCN2CCC(O)CC2)nc2nc[nH]c12` [Compound 13, 12-(4-hydroxypiperidin-1-yl)dodecyl-N-(6-aminopurine-2-yl) carboxamide]: the “Proliferation inhibition rate (%)” value is recorded as 9.13% (compound 10 nM, listed as GO87, 0.01 µM); 1.71% (compound 100 nM, listed as GO87, 0.1 µM); 81.15% (compound 10 μM, listed as GO87, 10 µM).

With `CN1CCN(CCCCCCCCCCCCNC(=O)c2ccncc2Cl)CC1` [Compound 199, 3-Chloro-N-(12-(4-methylpiperazin-1-yl)dodecyl)isonicotinamide], the inhibition at 0.01 µM (compound 10 nM) was 0%. The inhibition at 0.1 µM (compound 100 nM) was determined as 0%. In addition, the inhibition at 1 µM (compound 1 μM) was 0%. For the same molecule, where the note is “compound 10 μM”, the inhibition at 10 µM turned out to be 40%. Also, where the note is “compound 30 μM”, the inhibition at 30 µM came to 100%. Besides, the inhibition at 50 µM (compound 50 μM) came to 100%.

On to `CC(C)(C)OC(=O)NC1CCN(CCCCCCCCCCCCNC(=O)c2cccnc2N)CC1` [Compound 101, tert-Butyl (1-(12-(2-aminonicotinamido)dodecyl)piperidin-4-yl) carbamate], for which the “Proliferation inhibition rate (%)” value runs as follows: (compound 10 nM) −0.15%; (compound 100 nM) 100.00%; (compound 1 μM) 100.00%; (compound 10 μM) 100.00%; (compound 30 μM) 100.00%; (compound 50 μM) 100.00%.

Consider `CCOc1cc(C(C)(C)C)ccc1C(=O)NCCCCCCCCCCCCN1CCN(C)CC1` [Compound 216, 4-(tert-butyl)-2-ethoxy-N-(12-(4-methylpiperazin-1-yl)dodecyl)benzamide], for which, where the note is “compound 10 nM”, the inhibition at 0.01 µM is 2.03%. Also, the inhibition at 0.1 µM (compound 100 nM) is 2.32%. Besides, the inhibition at 1 µM (compound 1 μM) is 13%. Besides, the inhibition at 10 µM (compound 10 μM) stood at 100%. The inhibition at 30 µM (compound 30 μM) was determined as 100%. In addition, under “compound 50 μM”, the inhibition at 50 µM came out at 100%.

As for `Nc1ncccc1C(=O)NCCCCCCCCCCCCn1ccc2ccc(I)cc21` [Compound 106, 2-Amino-N-(12-(6-iodo-1H-indol-1-yl)dodecyl)nicotinamide], the inhibition at 0.01 µM (compound 10 nM) is 0.44%. Besides, the inhibition at 0.1 µM (compound 100 nM) is -1.9%. The inhibition at 1 µM (compound 1 μM) was found to be 0.44%. In addition, where the note is “compound 10 μM”, the inhibition at 10 µM was determined as 100%. In addition, the inhibition at 30 µM (compound 30 μM) came to 100%. Moreover, the inhibition at 50 µM (compound 50 μM) turned out to be 100%.

For the molecule `CN1CCN(CCCCCCCCCCCCNC(=O)c2ccnc(Cl)c2Cl)CC1` [Compound 198, 2,3-Dichloro-N-(12-(4-methylpiperazin-1-yl)dodecyl)isonicotinamide], the inhibition at 0.01 µM (compound 10 nM) stood at 5.35%. Further, for the setting “compound 100 nM”, the inhibition at 0.1 µM was determined as 9.41%. Also, where the note is “compound 1 μM”, the inhibition at 1 µM turned out to be 20.1%. The inhibition at 10 µM (compound 10 μM) turned out to be 100%. Besides, the inhibition at 30 µM (compound 30 μM) stood at 100%. Further, the inhibition at 50 µM (compound 50 μM) is 100%.

Consider `CC1CN(CCCCCCCCCCCCNC(=O)c2cccnc2N)C(C)CN1.Cl` (stereo not drawn) [Compound 36, 2-Amino-N-(12-(2,5-dimethylpiperazin-1-yl)dodecyl) nicotinamide hydrochloride], for which the “Proliferation inhibition rate (%)” value (compound 10 nM) is on record as −38.89%; the “Proliferation inhibition rate (%)” value (compound 100 nM) is 100.00%; the “Proliferation inhibition rate (%)” value (compound 1 μM) was 100.00%; the “Proliferation inhibition rate (%)” value (compound 10 μM) came to 100.00%; the “Proliferation inhibition rate (%)” value (compound 30 μM) worked out at 100.00%; the “Proliferation inhibition rate (%)” value (compound 50 μM) was determined as 100.00%.

`Nc1ncccc1C(=O)NCCCCCCCCCCCCNC1CCOC1` (stereo not drawn) [Compound 128, 2-amino-N-(12-((tetrahydrofuran-3-yl)amino)dodecyl) nicotinamide]: the “Proliferation inhibition rate (%)” value reads like this: (compound 10 nM) −7.16%; (compound 100 nM) 100.00%; (compound 1 μM) 100.00%; (compound 10 μM) 100.00%; (compound 30 μM) 100.00%; (compound 50 μM) 100.00%.

For `Nc1ncccc1C(=O)NCCCCCCCCCCCCN1CCC2CCCCC2C1` (stereo not drawn) [Compound 16, 2-Amino-N-(12-(octahydroisoquinolin-2 (1H)-yl)dodecyl) nicotinamide], the “Proliferation inhibition rate (%)” value runs as follows: (compound 10 nM) 4.13%; (compound 100 nM) −2.93%; (compound 1 μM) 100.00%; (compound 10 μM) 100.00%; (compound 30 μM) 100.00%; (compound 50 μM) 100.00%.

Consider `CN1CCN(CCCCCCCCCCCCNC(=O)c2ccc(-c3ncn[nH]3)cc2)CC1` [Compound 208, N-(12-(4-methylpiperazin-1-yl)dodecyl)-4-(1H-1,2,4-triazol-5-yl)benzamide], for which the inhibition at 0.01 µM (compound 10 nM) is 2.46%. Also, the inhibition at 0.1 µM (compound 100 nM) is -0.58%. The inhibition at 1 µM (compound 1 μM) came out at 10.6%. Also, the inhibition at 10 µM (compound 10 μM) was found to be 100%. Further, for the setting “compound 30 μM”, the inhibition at 30 µM stood at 100%. For the same molecule, under “compound 50 μM”, the inhibition at 50 µM amounted to 100%.

Regarding `N#CCCCCCCCCCCNC(=O)c1ccccc1Br` [Compound 77, 2-Bromo-N-(10-cyano-decyl)benzamide], the inhibition at 0.01 µM (compound 10 nM) came to 1.51%. For the setting “compound 100 nM”, the inhibition at 0.1 µM is -3.97%. Under “compound 1 μM”, the inhibition at 1 µM was 15.3%. Also, the inhibition at 10 µM (compound 10 μM) was determined as 2.09%. The inhibition at 30 µM (compound 30 μM) worked out at 3.8%. The inhibition at 50 µM (compound 50 μM) was 32.2%.

On to `COC(=O)C1CCN(CCCCCCCCCCCCNC(=O)c2cccnc2N)C1` (stereo not drawn) [Compound 116, Methyl-1-(12-(2-aminonicotinamido)dodecyl) pyrrolidine-3-carboxylate], for which the “Proliferation inhibition rate (%)” value is on record as −1.90% (compound 10 nM); 26.17% (compound 100 nM); 100.00% (compound 1 μM); 100.00% (compound 10 μM); 100.00% (compound 30 μM); 100.00% (compound 50 μM).
